Experimental findings from patent US4368329A, “Process of preparing thiopyrylium sensitizing dyes” (Minnesota Mining and Manufacturing Company, priority 1981, dated 1983) are described below.

One data set can be described thus: Absorption maximum (λmax) and log ε of the dye in solution. In kind it is physicochemical. The settings on record: CHCl3.
On to `CCN(Cc1ccccc1)c1ccc(-c2cc(-c3ccccc3)cc(-c3ccccc3)[s+]2)cc1` [Example 8], for which the “log ε max.” value stood at 4.53 and the λ max. was 620.
Take `Cc1cc(-c2cc(-c3ccccc3)cc(-c3ccccc3)[s+]2)cc(C)c1N` [Example 17]: the “log ε max.” value was 4.32 and the λ max. turned out to be 600.
`Cc1cc(N(C)C)ccc1-c1cc(-c2ccccc2)cc(-c2ccccc2)[s+]1` [Example 16] returned a λ max. of 616.
Regarding `Nc1ccc(-c2cc(-c3ccccc3)cc(-c3ccccc3)[s+]2)cc1` [Example 2], the “log ε max.” value is 4.34 and the λ max. stood at 592.
Take `CCN(Cc1ccccc1)c1ccc(-c2cc(-c3ccccc3)cc(-c3ccccc3)[s+]2)cc1` [Example 9]: the “log ε max.” value came out at 5.18 and the λ max. is 615.
For the compound `CN(C)c1ccc(-c2cc(-c3ccccc3)cc(-c3ccccc3)[s+]2)cc1` [Example 6], the “log ε max.” value is recorded as 4.86 and the λ max. was determined as 622.
As to `CCN(CC)c1ccc(-c2cc(-c3ccccc3)cc(-c3ccccc3)[s+]2)cc1` [Example 7], the “log ε max.” value was 4.50 and the λ max. was determined as 638.
For `CCN(Cc1ccccc1)c1ccc(-c2cc(-c3ccccc3)cc(-c3ccccc3)[s+]2)cc1` [Example 10], the “log ε max.” value is 5.05 and the λ max. turned out to be 620.
Regarding `CN(C)c1ccc(-c2cc(-c3ccccc3)cc(-c3ccccc3)[s+]2)cc1` [Example 5], the “log ε max.” value amounted to 4.77 and the λ max. is on record as 624.
For the compound `COc1cc(-c2cc(-c3ccccc3)cc(-c3ccccc3)[s+]2)ccc1N` [Example 21], the “log ε max.” value came out at 4.32 and the λ max. came to 612.
As for `Nc1ccc(-c2cc(-c3ccccc3)cc(-c3ccccc3)[s+]2)c(Cl)c1` [Example 27], the “log ε max.” value stood at 4.00 and the λ max. turned out to be 564.
Taken in the same sequence, the figures for `c1ccc(Nc2ccc(-c3cc(-c4ccccc4)cc(-c4ccccc4)[s+]3)cc2)cc1` [Example 20] were 4.39 and 650.
As for `COc1cc(-c2cc(-c3ccccc3)cc(-c3ccccc3)[s+]2)c(OC)cc1N` [Example 25], the “log ε max.” value came out at 4.36 and the λ max. is reported as 602.
The compound `Nc1ccc(-c2cc(-c3ccccc3)cc(-c3ccccc3)[s+]2)cc1N` [Example 29] displayed a λ max. of 654.
`c1ccc(-c2cc(-c3ccccc3)[s+]c(-c3cc4c5c(c3)CCCN5CCC4)c2)cc1` [Example 31, 2,4-diphenyl-6(julolidin-6-yl) thiopyrylium trifluoromethane sulfonate]: the λ max. turned out to be 675 nm.
For the compound `c1ccc(CN(Cc2ccccc2)c2ccc(-c3cc(-c4ccccc4)cc(-c4ccccc4)[s+]3)cc2)cc1` [Example 11], the “log ε max.” value turned out to be 4.50 and the λ max. is reported as 602.
With `Cc1cc(N)ccc1-c1cc(-c2ccccc2)cc(-c2ccccc2)[s+]1` [Example 14], the “log ε max.” value worked out at 4.30 and the λ max. is listed as 564.
Turning to `Cc1cc(-c2cc(-c3ccccc3)cc(-c3ccccc3)[s+]2)ccc1N` [Example 12], the “log ε max.” value is listed as 4.32 and the λ max. is listed as 600.
For `c1ccc(-c2cc(-c3ccccc3)[s+]c(-c3ccc(NC4CCCCC4)cc3)c2)cc1` [Example 19], the “log ε max.” value is 4.31 and the λ max. is 634.
`OCCN(CCO)c1ccc(-c2cc(-c3ccccc3)cc(-c3ccccc3)[s+]2)cc1` [Example 26]: the “log ε max.” value turned out to be 4.31 and the λ max. is given as 638.
Consider `CNc1ccc(-c2cc(-c3ccccc3)cc(-c3ccccc3)[s+]2)cc1` [Example 4], for which the “log ε max.” value came to 4.55 and the λ max. is 633.
In the case of `CCc1cc(-c2cc(-c3ccccc3)cc(-c3ccccc3)[s+]2)cc(CC)c1N` [Example 18], the “log ε max.” value came to 4.32 and the λ max. amounted to 602.
The corresponding values for `COc1cc(N)ccc1-c1cc(-c2ccccc2)cc(-c2ccccc2)[s+]1` [Example 23] are 4.27 and 586.

The same data set, now with this note: EtOH.
`CNc1ccc(-c2cc(-c3ccccc3)cc(-c3ccccc3)[s+]2)cc1` [Example 3]: the “log ε max.” value is listed as 4.38 and the λ max. stood at 596.
Take `COc1cc(N)ccc1-c1cc(-c2ccccc2)cc(-c2ccccc2)[s+]1` [Example 24]: the “log ε max.” value is 4.16 and the λ max. worked out at 566.
Turning to `Cc1cc(N)ccc1-c1cc(-c2ccccc2)cc(-c2ccccc2)[s+]1` [Example 15], the “log ε max.” value is listed as 4.16 and the λ max. is listed as 556.
For `Cc1cc(-c2cc(-c3ccccc3)cc(-c3ccccc3)[s+]2)ccc1N` [Example 13], the “log ε max.” value was found to be 4.32 and the λ max. was 596.
The corresponding values for `Nc1ccc(-c2cc(-c3ccccc3)cc(-c3ccccc3)[s+]2)cc1` [Example 1, 2-(4-aminophenyl)-4,6-diphenylthiopyrylium perchlorate] are 4.21 and 584.
The corresponding values for `Nc1ccc(-c2cc(-c3ccccc3)cc(-c3ccccc3)[s+]2)c(Cl)c1` [Example 28] are 4.06 and 588.
Taken in the same sequence, the figures for `COc1cc(-c2cc(-c3ccccc3)cc(-c3ccccc3)[s+]2)ccc1N` [Example 22] were 4.19 and 588.

The same data set, now with this note: Example 1, first band (584); solvent not given.
`Nc1ccc(-c2cc(-c3ccccc3)cc(-c3ccccc3)[s+]2)cc1` [Example 1, 2-(4-aminophenyl)-4,6-diphenylthiopyrylium perchlorate] registered a logε of 4.21.

Still in this data set, the particulars now being: Example 1, first band; solvent not given.
Regarding `Nc1ccc(-c2cc(-c3ccccc3)cc(-c3ccccc3)[s+]2)cc1` [Example 1, 2-(4-aminophenyl)-4,6-diphenylthiopyrylium perchlorate], the λ max. came out at 584.

Staying with this data set, now noted: Example 1, second band (367); solvent not given.
In turn, `Nc1ccc(-c2cc(-c3ccccc3)cc(-c3ccccc3)[s+]2)cc1` [Example 1, 2-(4-aminophenyl)-4,6-diphenylthiopyrylium perchlorate] yielded a logε of 4.27.

The data set is the same for the next values; noted with them: Example 1, second band; solvent not given.
For the compound `Nc1ccc(-c2cc(-c3ccccc3)cc(-c3ccccc3)[s+]2)cc1` [Example 1, 2-(4-aminophenyl)-4,6-diphenylthiopyrylium perchlorate], the λ max. is listed as 367.
